Measured values as given in ChEMBL document CHEMBL6177967, “Semisynthesis and biological evaluation of 17-hydroxybrevianamide N derivatives as anti-inflammatory agents by mediating NF-κB and MAPK signaling pathways” (Eur J Med Chem, 2025).
Active and inactive are the calls of the source. The rule behind the calls is not given here.

Experiments:
RAW264.7 [1] = test: Cytotoxicity against mouse RAW264.7 cells assessed as inhibition of cell growth at 50 uM incubated for 24 hrs by MTT assay; type: toxicity, cell-based; settings: raw264.7, 24 h
RAW264.7 [2] = test: Cytotoxicity against mouse RAW264.7 cells assessed as inhibition of cell growth at 10 uM incubated for 24 hrs by MTT assay; type: toxicity, cell-based; settings: raw264.7, 24 h
RAW264.7 [3] = test: Anti-inflammatory activity in LPS-induced mouse RAW264.7 cells assessed as inhibition of NO levels at 2 uM incubated for 24 hrs; type: functional, cell-based
RAW264.7 [4] = test: Cytotoxicity against mouse RAW264.7 cells assessed as inhibition of cell growth at 2 uM incubated for 24 hrs by MTT assay; type: toxicity, cell-based; settings: raw264.7, 24 h
RAW264.7 [5] = test: Anti-inflammatory activity in LPS-induced mouse RAW264.7 cells assessed as inhibition of NO levels incubated for 24 hrs; type: functional, cell-based; settings: RAW264.7, 24 h
RAW264.7 [6] = test: Anti-inflammatory activity in LPS-induced mouse RAW264.7 cells assessed as inhibition of TNF-alpha level at 2 uM incubated for 24 hrs by ELISA relative to control; type: functional
RAW264.7 [7] = test: Anti-inflammatory activity in LPS-induced mouse RAW264.7 cells assessed as inhibition of IL-6 level at 2 uM incubated for 24 hrs by ELISA relative to control; type: functional
RAW264.7 [8] = test: Anti-inflammatory activity in LPS-induced mouse RAW264.7 cells assessed as inhibition of IL-1beta level at 2 uM incubated for 24 hrs by ELISA relative to control; type: functional
RAW264.7 [9] = test: Anti-inflammatory activity in LPS-induced mouse RAW264.7 cells assessed as inhibition of TNF-alpha level at 20 uM incubated for 24 hrs by ELISA relative to control; type: functional
RAW264.7 [10] = test: Anti-inflammatory activity in LPS-induced mouse RAW264.7 cells assessed as inhibition of IL-6 level at 20 uM incubated for 24 hrs by ELISA relative to control; type: functional
RAW264.7 [11] = test: Anti-inflammatory activity in LPS-induced mouse RAW264.7 cells assessed as inhibition of IL-1beta level at 20 uM incubated for 24 hrs by ELISA relative to control; type: functional

O=C1c2nc3ccccc3c(=O)n2C(Cc2ccccc2O)C(=O)N1Cc1ccccc1Cl (racemic)
Activity (RAW264.7 [1]): Non-toxic | Activity (RAW264.7 [2]): Non-toxic | Activity (RAW264.7 [3]): Active; Strong Ability Of No Inhibition Observed

CN1C(=O)c2nc3ccccc3c(=O)n2[C@@H](Cc2ccccc2OCc2ccccc2Cl)C1=O
Activity (RAW264.7 [4]): Non-toxic | IC50 (RAW264.7 [5]): 1530 nM | inhibition (RAW264.7 [6]): inactive | inhibition at 2 µM (RAW264.7 [7]): 21.4% | inhibition at 2 µM (RAW264.7 [8]): 82.1%

CN1C(=O)c2nc3ccccc3c(=O)n2C(Cc2ccccc2OCc2cccc(C(F)(F)F)c2)C1=O (racemic)
Activity (RAW264.7 [2]): Non-toxic

O=C1c2nc3ccccc3c(=O)n2C(Cc2ccccc2O)C(=O)N1Cc1cccc(C(F)(F)F)c1 (racemic)
Activity (RAW264.7 [2]): Non-toxic

O=C1c2nc3ccccc3c(=O)n2[C@H](Cc2ccccc2O)C(=O)N1Cc1cccc(Br)c1
Activity (RAW264.7 [4]): Non-toxic | IC50 (RAW264.7 [5]): 1370 nM | inhibition (RAW264.7 [6]): inactive | inhibition at 2 µM (RAW264.7 [7]): 19.2% | inhibition at 2 µM (RAW264.7 [8]): 45.2%

Cc1ccc(COc2ccccc2CC2C(=O)N(C)C(=O)c3nc4ccccc4c(=O)n32)cc1 (racemic)
Activity (RAW264.7 [2]): Non-toxic

CN1C(=O)c2nc3ccccc3c(=O)n2[C@H](Cc2ccccc2OCc2ccccc2Cl)C1=O
Activity (RAW264.7 [4]): Non-toxic | IC50 (RAW264.7 [5]): > 8000 nM | inhibition (RAW264.7 [6]): inactive | inhibition (RAW264.7 [7]): inactive | inhibition (RAW264.7 [8]): inactive

COc1ccccc1CC1C(=O)N(Cc2cccc(C)c2)C(=O)c2nc3ccccc3c(=O)n21 (racemic)
Activity (RAW264.7 [2]): Non-toxic

CN1C(=O)c2nc3ccccc3c(=O)n2[C@@H](Cc2ccccc2OCC#N)C1=O
Activity (RAW264.7 [4]): Non-toxic | IC50 (RAW264.7 [5]): 1610 nM | inhibition (RAW264.7 [6]): inactive | inhibition at 2 µM (RAW264.7 [7]): 31.6% | inhibition at 2 µM (RAW264.7 [8]): 48.8%

O=C1NC(=O)C(Cc2ccccc2O)n2c1nc1ccccc1c2=O (racemic)
Activity (RAW264.7 [2]): Non-toxic | inhibition (RAW264.7 [6]): inactive | inhibition at 2 µM (RAW264.7 [7]): 28.8% | inhibition at 2 µM (RAW264.7 [8]): 33.3%

COc1ccccc1CC1C(=O)N(Cc2cccc(F)c2)C(=O)c2nc3ccccc3c(=O)n21 (racemic)
Activity (RAW264.7 [2]): Non-toxic

C=CCOc1ccccc1C[C@@H]1C(=O)N(C)C(=O)c2nc3ccccc3c(=O)n21
Activity (RAW264.7 [4]): Non-toxic | IC50 (RAW264.7 [5]): 1680 nM | inhibition (RAW264.7 [6]): inactive | inhibition at 2 µM (RAW264.7 [7]): 36.5% | inhibition at 2 µM (RAW264.7 [8]): 42.9%

COCC(=O)Oc1ccccc1CC1C(=O)N(C)C(=O)c2nc3ccccc3c(=O)n21 (racemic)
Activity (RAW264.7 [2]): Non-toxic

CN1C(=O)c2nc3ccccc3c(=O)n2C(Cc2ccccc2OCc2ccc(Cl)cc2)C1=O (racemic)
Activity (RAW264.7 [2]): Non-toxic | Activity (RAW264.7 [3]): Active

CN1C(=O)C(Cc2ccccc2O)n2c(nc3ccccc3c2=O)C1(O)c1ccccc1 (racemic)
Activity (RAW264.7 [1]): Non-toxic | Activity (RAW264.7 [2]): Non-toxic

O=C1c2nc3ccccc3c(=O)n2[C@@H](Cc2ccccc2O)C(=O)N1Cc1ccccc1Cl
Activity (RAW264.7 [4]): Non-toxic | IC50 (RAW264.7 [5]): 1780 nM | inhibition (RAW264.7 [6]): inactive | inhibition at 2 µM (RAW264.7 [7]): 19.3% | inhibition (RAW264.7 [8]): inactive

CN1C(=O)c2nc3ccccc3c(=O)n2C(Cc2ccccc2OCC#N)C1=O (racemic)
Activity (RAW264.7 [1]): Non-toxic | Activity (RAW264.7 [2]): Non-toxic | Activity (RAW264.7 [3]): Active; Strong Ability Of No Inhibition Observed

O=C1c2nc3ccccc3c(=O)n2C(Cc2ccccc2O)C(=O)N1Cc1cccc(F)c1 (racemic)
Activity (RAW264.7 [2]): Non-toxic | Activity (RAW264.7 [3]): Active; Strong Ability Of No Inhibition Observed

O=C1c2nc3ccccc3c(=O)n2[C@@H](Cc2ccccc2O)C(=O)N1Cc1cccc(F)c1
Activity (RAW264.7 [4]): Non-toxic | IC50 (RAW264.7 [5]): 3070 nM | inhibition (RAW264.7 [6]): inactive | inhibition at 2 µM (RAW264.7 [7]): 21.3% | inhibition at 2 µM (RAW264.7 [8]): 60.7%

CNC(=N)NCCC[C@H](N)C(=O)O [TILARGININE]
IC50 (RAW264.7 [5]): 20000 nM | inhibition at 20 µM (RAW264.7 [9]): 19.4% | inhibition at 20 µM (RAW264.7 [10]): 27.6% | inhibition at 20 µM (RAW264.7 [11]): 61.9%

COCOc1ccccc1CC1C(=O)N(Cc2cccc(C(F)(F)F)c2)C(=O)c2nc3ccccc3c(=O)n21 (racemic)
Activity (RAW264.7 [1]): Toxic | Activity (RAW264.7 [2]): Non-toxic

O=C1c2nc3ccccc3c(=O)n2[C@@H](Cc2ccccc2O)C(=O)N1Cc1cccc(Br)c1
Activity (RAW264.7 [4]): Non-toxic | IC50 (RAW264.7 [5]): > 8000 nM | inhibition (RAW264.7 [6]): inactive | inhibition (RAW264.7 [7]): inactive | inhibition (RAW264.7 [8]): inactive

CN1C(=O)c2nc3ccccc3c(=O)n2C(Cc2ccccc2O)C1=O (racemic)
Activity (RAW264.7 [2]): Non-toxic

COc1ccc(C2(O)c3nc4ccccc4c(=O)n3C(Cc3ccccc3O)C(=O)N2C)cc1 (racemic)
Activity (RAW264.7 [2]): Non-toxic

CN1C(=O)c2nc3ccccc3c(=O)n2C(Cc2ccccc2OC(=O)c2cccs2)C1=O (racemic)
Activity (RAW264.7 [2]): Non-toxic

O=C1c2nc3ccccc3c(=O)n2C(Cc2ccccc2O)C(=O)N1Cc1cccc(Br)c1 (racemic)
Activity (RAW264.7 [2]): Non-toxic | Activity (RAW264.7 [3]): Active; Strong Ability Of No Inhibition Observed

COCOc1ccccc1CC1C(=O)NC(=O)c2nc3ccccc3c(=O)n21 (racemic)
Activity (RAW264.7 [2]): Non-toxic

CN1C(=O)c2nc3ccccc3c(=O)n2[C@H](Cc2ccccc2OCC#N)C1=O
Activity (RAW264.7 [4]): Non-toxic | IC50 (RAW264.7 [5]): > 8000 nM | inhibition (RAW264.7 [6]): inactive | inhibition at 2 µM (RAW264.7 [7]): 31.9% | inhibition at 2 µM (RAW264.7 [8]): 63.1%

COCOc1ccccc1CC1C(=O)N(Cc2cccc(C)c2)C(=O)c2nc3ccccc3c(=O)n21 (racemic)
Activity (RAW264.7 [2]): Non-toxic

O=C1c2nc3ccccc3c(=O)n2[C@H](Cc2ccccc2O)C(=O)N1Cc1ccccc1Cl
Activity (RAW264.7 [4]): Non-toxic | IC50 (RAW264.7 [5]): 1190 nM | inhibition (RAW264.7 [6]): inactive | inhibition at 2 µM (RAW264.7 [7]): 28.8% | inhibition at 2 µM (RAW264.7 [8]): 35.7%

O=C1c2nc3ccccc3c(=O)n2[C@H](Cc2ccccc2O)C(=O)N1Cc1cccc(F)c1
Activity (RAW264.7 [4]): Non-toxic | IC50 (RAW264.7 [5]): 2250 nM | inhibition (RAW264.7 [6]): inactive | inhibition at 2 µM (RAW264.7 [7]): 22.9% | inhibition at 2 µM (RAW264.7 [8]): 44%

C=CCOc1ccccc1CC1C(=O)N(C)C(=O)c2nc3ccccc3c(=O)n21 (racemic)
Activity (RAW264.7 [1]): Toxic | Activity (RAW264.7 [2]): Non-toxic | Activity (RAW264.7 [3]): Active; Strong Ability Of No Inhibition Observed

CN1C(=O)c2nc3ccccc3c(=O)n2C(Cc2ccccc2OCc2ccccc2Cl)C1=O (racemic)
Activity (RAW264.7 [2]): Non-toxic | Activity (RAW264.7 [3]): Active; Strong Ability Of No Inhibition Observed

CC(=O)Oc1ccccc1CC1C(=O)N(C)C(=O)c2nc3ccccc3c(=O)n21 (racemic)
Activity (RAW264.7 [2]): Non-toxic

Cc1ccc(CN2C(=O)c3nc4ccccc4c(=O)n3C(Cc3ccccc3O)C2=O)cc1 (racemic)
Activity (RAW264.7 [1]): Non-toxic | Activity (RAW264.7 [2]): Non-toxic

Cc1cccc(CN2C(=O)c3nc4ccccc4c(=O)n3C(Cc3ccccc3O)C2=O)c1 (racemic)
Activity (RAW264.7 [2]): Non-toxic | Activity (RAW264.7 [3]): Active

CN1C(=O)c2nc3ccccc3c(=O)n2C(Cc2ccccc2OC(=O)c2ccco2)C1=O (racemic)
Activity (RAW264.7 [2]): Non-toxic

CN1C(=O)c2nc3ccccc3c(=O)n2C(Cc2ccccc2OC(=O)COCc2ccccc2)C1=O (racemic)
Activity (RAW264.7 [2]): Non-toxic

CCOC(=O)COc1ccccc1CC1C(=O)N(C)C(=O)c2nc3ccccc3c(=O)n21 (racemic)
Activity (RAW264.7 [2]): Non-toxic

O=C1c2nc3ccccc3c(=O)n2C(Cc2ccccc2O)C(=O)N1Cc1ccc(Cl)cc1 (racemic)
Activity (RAW264.7 [1]): Non-toxic | Activity (RAW264.7 [2]): Non-toxic

COc1ccccc1CC1C(=O)N(C)C(=O)c2nc3ccccc3c(=O)n21 (racemic)
Activity (RAW264.7 [2]): Non-toxic
